Laboratory results from patent US20100298377A1, “NOVEL SUBSTITUTED INDAZOLES, THE PREPARATION THEREOF AND USE OF SAME IN THERAPEUTICS” (SANOFI-AVENTIS, priority 2007, published 2010).
Structures can show the parent of a compound that is named as a salt.

Columns and labels:
[1] = tested on: MEF-IGF1 murine fibroblast cells; experiment: IGF1-dependent proliferation of MEF-IGF1 cells via incorporation of [14C]-thymidine; type: cell-based; details: [14C]-thymidine incorporation, IGF1 stimulated, 72 hours; read-out: IC50 MEF-IGF
From the text: a. Study of the IGF1-Dependent Proliferation of MEF-IGF1 Murine Fibroblast Cells Measured via Incorporation of [14C]-Thymidine
This test is based on the incorporation of [^14C]-thymidine into the DNA of the cells for the S phase of the cell cycle during cell division. The cell line used in this test is the MEF/3T3 Tet-Off Clone 18 line obtained by stable transfection of the human receptor IGF1R in murine MEF/3T3 Tet-Off fibroblasts. To measure the IGF1-dependent cell proliferation, the cells were deprived of serum and cultured for 3 days in the serum-free culture medium in the presence of the growth factor IGF1 which stimulates the proliferation of MEF-IGF1 cells.
Test of Incorporation of [^14C]-Thymidine into MEF-IGF1 Cells
On day 1, the cells were inoculated with 7500 cells per well in Cytostar 96-well microplates (Amersham (GE) RPNQ0162) in 200 μl of EMEM medium (EMEM, Biowhittaker, #BE12-662F) containing 10% foetal calf serum (FCS, TET-BD Biosciences Tet System Approved FBS US-Sourced, #8630-1) and 1% PSG (Penicillin-Streptomycin-Glutamine (PSG), Gibco #10378-016), and incubated at 37° C., 5% CO2, for 24 hours. On day 2, the cells were washed in the FCS-free EMEM culture medium containing 1% PSG, and incubated in 170 μl of this serum-free culture medium at 37° C., 5% CO2, for 24 hours. On day 3, the cells were incubated with 10 μl of IGF1 (2 μg/ml of final concentration; recombinant human IGF-1, R & D Systems, #291-G1), 10 μl (0.1 μCi) of [^14C]-Thymidine (NEN NEC-568) plus 10 μl of increasing concentrations of the test molecules, diluted in dimethyl sulfoxide (DMSO, Sigma D2650). The molecules were added in a volume of 10 μl of a 20-fold concentrated solution in a final volume of 200 μl, the final percentage of DMSO being 0.1%. The treated cells were incubated at 37° C., 5% CO2, for 72 hours. The incorporation of [^14C]-Thymidine was quantified in cpm units (counts per minute) by counting the radioactivity 72 hours after the start of the treatment, using a Micro-Beta radioactivity counter (Perkin-Elmer). The tests were performed in duplicate.
i) the mean±s.e.m. of each series of well replicates was calculated;
ii) the background noise is calculated by preparing cell-free, IGF1-free and untreated control wells; this control was performed in 4 replicates. The background noise was removed at each measurement;
iii) the maximum response is given by positive control wells containing cells in the presence of IGF1 but untreated; this control was performed in 4 replicates;
iv) the minimum response is given by negative control wells containing IGF1-free and untreated cells; this control was performed in 4 replicates;
The IC50 values were calculated by […] with the XLfit software (IDBS, UK) using formula 205.

AKT1 = AKT1 (Homo sapiens, UniProt P31749, S473D); experiment: Determination of the IC50 for AKT1 (HTRF); type: biochemical; details: AKT1 without PH domain, activated by PDK1
Procedure: Determination of the IC50 for AKT1
The inhibitory potential of the compounds is evaluated by HTRF, a time-resolved fluorescence technique based on non-radiative energy transfer (FRET). […] This phosphorylation allows the kinase activity of AKT1 to be activated.
Starting with a 10 mM solution of inhibitors, 3 μl are taken and placed in a 96-well polypropylene plate containing 27 μl of 100% DMSO. The various test compounds are diluted in cascade by taking 15 μl of compound, to which are added 30 μl of 100% DMSO.
The various reaction components are added in the following manner:
Next, 10 μl of the inhibitor solution are added. Finally, the reaction is initiated by adding 10 μl of a solution containing both 100 μM of ATP and 10 μM of biotinylated peptide. The sequence of this peptide is as follows: biot-[…] (reference Neosystem SP000560). The plate is then covered with a plastic film, agitated and finally incubated at RT for 30 minutes. […] After incubation overnight at 4° C., the plate is read using an Ultra evolution spectrophotometer from Tecan. […] All the tests are performed in duplicate and the mean of the two tests is calculated.
For each point, a delta F is calculated in the following manner:
(§1) R(Ratio)=counts665 nm/counts620 nm
ΔF % is calculated by the Tecan Ultra Evolution machine.

[2] = biological target: T1, Human S6K1 (24-421) T412E protein (Homo sapiens, UniProt P23443, T412E); experiment: Determination of the IC50 for S6K1 (HTRF substrate phosphorylation test); type: biochemical; details: S6K1 activated by PDK1, ATP 30 μM
T1 construct: Human S6K1 (24-421) T412E protein; made in house; host or cells: Sf21 insect cells
Procedure: Determination of the IC50 for S6K1
The inhibitory potential of the compounds for S6K1 is evaluated in an enzymatic test of phosphorylation of substrate in HTRF (Homogenous Time-Resolved Fluorescence) format. Human S6K1 (24-421) T412E protein is expressed in sf21 cells and purified by chromatography on a nickel chelate column. It is activated by PDK1.
The test comprises two steps, both performed at RT. The phosphorylation reaction takes place during the first step and the revelation step is performed during the second. […] The final concentrations of compounds thus obtained during the incubation period range from 10 μM to 0.17 nM and the concentration of enzyme is 2 nM. After incubation for 20 minutes, the reaction is stopped and the revelation initiated by addition of 30 μl of a mixture of streptavidin XL 665 Xlent, ref. 611SAXLB Cis bio international, and a europium cryptate-coupled anti-phospho-GSK3 antibody, ref. 64CUSKAZ Cis bio international, dissolved in the revelation buffer (HEPES/NaOH 166.7 mM, EDTA 221.7 mM, KF 667.7 mM, BSA 0.167%, pH 7.0). The reaction takes place in a black half-well plate ref. 3694 Costar.
A mixture of the reaction medium after each addition of reagent is obtained by agitation for a few minutes at 700-1000 rpm on a Heidolph Titramax 100 machine. The reading is taken on a TECAN Ultra Evolution machine after at least one night and up to 3 nights at 4° C. The reading settings are as follows: excitation wavelength 320 nm, emission wavelengths 620 and 665 nm, lag time 150 μs, integration time 500 μs.
For each point, the ΔF % is calculated as follows:
as §1
The IC50 values are calculated by means of the XLfit4 205 equation.

T1 sequence (P23443 24-421 T412E): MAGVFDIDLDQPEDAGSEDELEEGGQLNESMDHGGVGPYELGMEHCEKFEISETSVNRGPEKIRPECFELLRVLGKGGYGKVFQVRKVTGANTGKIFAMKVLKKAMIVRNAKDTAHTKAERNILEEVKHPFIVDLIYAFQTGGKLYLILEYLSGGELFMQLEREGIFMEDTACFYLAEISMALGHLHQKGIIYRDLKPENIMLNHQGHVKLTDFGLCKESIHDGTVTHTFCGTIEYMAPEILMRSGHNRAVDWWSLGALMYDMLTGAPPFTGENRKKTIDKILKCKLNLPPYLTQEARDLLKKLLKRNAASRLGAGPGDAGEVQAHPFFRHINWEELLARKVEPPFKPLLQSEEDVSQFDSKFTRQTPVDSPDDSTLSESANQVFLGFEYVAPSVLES
AKT1, sequence (P31749 118-480 S473D limits assumed): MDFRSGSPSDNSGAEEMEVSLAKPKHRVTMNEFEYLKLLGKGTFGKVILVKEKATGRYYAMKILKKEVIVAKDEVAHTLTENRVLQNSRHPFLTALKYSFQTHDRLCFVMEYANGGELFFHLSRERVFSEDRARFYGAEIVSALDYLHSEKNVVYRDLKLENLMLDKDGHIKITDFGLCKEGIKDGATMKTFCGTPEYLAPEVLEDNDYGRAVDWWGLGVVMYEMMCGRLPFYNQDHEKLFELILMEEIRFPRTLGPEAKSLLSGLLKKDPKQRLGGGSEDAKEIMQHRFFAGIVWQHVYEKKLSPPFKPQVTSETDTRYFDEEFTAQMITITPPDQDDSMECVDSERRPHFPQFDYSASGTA

Compound	IC50 (AKT1)	IC50 [2]	melting point	IC50 [1]
(6-Fluoro-1H-indazol-5-yl)-(S)-(3-chloro-5-fluorophenyl)-(S)-piperid-2-ylmethyl carbamate [Ex 50]	< 100 nM			3160 nM
O=C(Nc1ccc2[nH]ncc2c1)O[C@@H](c1cccc(C(=O)NC2CCCCC2)c1)[C@@H]1CCCCN1 [Ex 47, (S)-(3-Cyclohexylcarbamoylphenyl)-(S)-piperid-2-ylmethyl (1H-Indazol-5-yl)carbamate]	< 100 nM	100 to 500 nM		
O=C(Nc1ccc2[nH]ncc2c1)N[C@@H](c1ccccc1)[C@@H]1CCCCN1 [Ex 8, 1-{(S)-(Phenyl)[(2S)-piperid-2-yl]methyl}-3-(1H-indazol-5-yl)urea]	< 100 nM	500 to 2000 nM	195 °C	
O=C(Nc1ccc2[nH]ncc2c1)O[C@H](c1ccc(Cl)c(Cl)c1)[C@@H]1CCCCN1 [Ex 38c, (R)-(3,4-Dichlorophenyl)[(2S)-piperid-2-yl]methyl 1H-indazol-5-ylcarbamate]	100 to 500 nM	100 to 500 nM		
CN1CCCCC1C(c1ccccc1)n1ccn(-c2ccc3[nH]ncc3c2)c1=O (as salt: fumarate) [Ex 30, 1-(1H-Indazol-5-yl)-3-[(1-methylpiperid-2-yl)phenylmethyl]-1,3-dihydroimidazol-2-one((S,2S),(R,2R))]			231 to 232 °C	
Nc1n[nH]c2ccc(NC(=O)N[C@@H](c3ccc(Cl)c(Cl)c3)[C@@H]3CCCCN3)cc12 (as salt: hydrochloride) [Ex 29, 1-(3-Amino-1H-indazol-5-yl)-3-{(S)-(3,4-dichlorophenyl)[(2S)-piperid-2-yl]methyl}urea]			214 °C	
O=C(Nc1ccc2[nH]ncc2c1)O[C@@H](c1ccc(Cl)c(Cl)c1)[C@@H]1CCCCN1 (as salt: hydrochloride) [Ex 38b, (S)-(3,4-Dichlorophenyl)[(2S)-piperid-2-yl]methyl 1H-indazol-5-ylcarbamate]			194 °C	
Nc1n[nH]c2ccc(NC(=O)N[C@@H](c3ccc(Cl)c(Cl)c3)[C@@H]3CCCCN3)cc12 [Ex 29, 1-(3-Amino-1H-indazol-5-yl)-3-{(S)-(3,4-dichlorophenyl)[(2S)-piperid-2-yl]methyl}urea]	< 100 nM	500 to 2000 nM		
O=C(Nc1ccc2[nH]ncc2c1)O[C@H](c1cc(F)cc(Cl)c1)[C@@H]1CCCCN1 [Ex 40, (R)-(3-Chloro-5-fluorophenyl)[(2S)-piperid-2-yl]methyl 1H-indazol-5-ylcarbamate]	500 to 2000 nM	500 to 2000 nM		
O=C(Nc1ccc2[nH]ncc2c1)N[C@H](c1ccccc1)[C@H]1CCCCN1 [Ex 9, 1-{(R)-(Phenyl)[(2R)-piperid-2-yl]methyl}-3-(1H-indazol-5-yl)urea]	100 to 500 nM	500 to 2000 nM	147 to 149 °C	
O=C(Nc1ccc2[nH]nc(C#Cc3ccccc3)c2c1)N[C@@H](c1ccc(Cl)c(Cl)c1)[C@@H]1CCCCN1 (as salt: fumaric acid salt) [Ex 26, 1-{(S)-(3,4-Dichlorophenyl)[(2S)-piperid-2-yl]methyl}-3-[3-(phenylethynyl)-1H-indazol-5-yl]urea]			160 °C	

More lines, main results first:

IC50 (AKT1)	IC50 [2]	melting point	Compound	IC50 [1]
100 to 500 nM		195 °C	C=CCN1CCCC[C@H]1[C@@H](NC(=O)Nc1ccc2[nH]ncc2c1)c1ccccc1 [Ex 10, 1-{(S)-(Phenyl)[(2S)-1-allylpiperid-2-yl]methyl}-3-(1H-indazol-5-yl)urea]	
		210 °C	CN1CCCCC1C(NC(=O)Nc1ccc2[nH]nc(-c3cccnc3)c2c1)c1ccccc1 (as salt: fumaric acid salt) [Ex 14, 1-[(1-Methylpiperid-2-yl)(phenyl)methyl]-3-(3-pyrid-3-yl-1H-indazol-5-yl)urea((S,2S),(R,2R))]	
		200 to 201 °C	Cc1n[nH]c2ccc(NC(=O)NC(c3ccccc3)C3CCCCN3C)cc12 (as salt: fumaric acid salt) [Ex 18, 3-Methyl-5-({[(1-methylpiperid-2-yl)(phenyl)methyl]carbamoyl}amino)-1H-indazole ((S,2S),(R,2R))]	
		164 °C	CN1CCCCC1C(NC(=O)Nc1cc(F)c2[nH]nc(NC(=O)c3ccccc3)c2c1)c1ccccc1 (as salt: fumaric acid salt) [Ex 19, N-[7-Fluoro-5-({[(1-methylpiperid-2-yl)(phenyl)methyl]carbamoyl}amino)-1H-indazol-3-yl]benzamide((S,2S),(R,2R))]	
		205 °C	CN1CCCCC1C(NC(=O)Nc1ccc2[nH]nc(CCc3ccccc3)c2c1)c1ccccc1 (as salt: fumaric acid salt) [Ex 27, 1-[(1-Methylpiperid-2-yl)(phenyl)methyl]-3-[3-(2-phenylethyl)-1H-indazol-5-yl]urea((S,2S),(R,2R))]	
		227 °C	CN1CCCCC1C(NC(=O)Nc1ccc2[nH]nc(C#Cc3ccccc3)c2c1)c1ccccc1 (as salt: fumaric acid salt) [Ex 23, 1-[(1-Methylpiperid-2-yl)(phenyl)methyl]-3-[3-(phenylethynyl)-1H-indazol-5-yl]urea((S,2S),(R,2R))]	
		224 to 227 °C	CN1CCCCC1C(NC(=O)Nc1cc(F)c2[nH]ncc2c1)c1ccccc1 (as salt: fumaric acid salt) [Ex 21, 1-(7-Fluoro-1H-indazol-5-yl)-3-[(1-methylpiperid-2-yl)(phenyl)methyl]urea((S,2S),(R,2R))]	
